Assay results reported in patent US8841456B2, “1,5-naphthyridine derivative or salt thereof” (FUJIFILM Corporation, priority 2011, dated 2014).
Like-named read-outs stand apart in the source and are kept apart here.

How the values were obtained:
[1] = biological target: T1, human PI3Kα protein (Homo sapiens, UniProt P42336); assay: PI3Kα enzyme assay (ADP-Glo kinase assay); format: biochemical; details: 3 nM PI3Kα, 50 μM PIP2, 100 μM ATP
T1 construct: purchased Carna Biosciences, Inc; host or cells: Baculovirus expression system
T1 sequence (P42336 whole entry): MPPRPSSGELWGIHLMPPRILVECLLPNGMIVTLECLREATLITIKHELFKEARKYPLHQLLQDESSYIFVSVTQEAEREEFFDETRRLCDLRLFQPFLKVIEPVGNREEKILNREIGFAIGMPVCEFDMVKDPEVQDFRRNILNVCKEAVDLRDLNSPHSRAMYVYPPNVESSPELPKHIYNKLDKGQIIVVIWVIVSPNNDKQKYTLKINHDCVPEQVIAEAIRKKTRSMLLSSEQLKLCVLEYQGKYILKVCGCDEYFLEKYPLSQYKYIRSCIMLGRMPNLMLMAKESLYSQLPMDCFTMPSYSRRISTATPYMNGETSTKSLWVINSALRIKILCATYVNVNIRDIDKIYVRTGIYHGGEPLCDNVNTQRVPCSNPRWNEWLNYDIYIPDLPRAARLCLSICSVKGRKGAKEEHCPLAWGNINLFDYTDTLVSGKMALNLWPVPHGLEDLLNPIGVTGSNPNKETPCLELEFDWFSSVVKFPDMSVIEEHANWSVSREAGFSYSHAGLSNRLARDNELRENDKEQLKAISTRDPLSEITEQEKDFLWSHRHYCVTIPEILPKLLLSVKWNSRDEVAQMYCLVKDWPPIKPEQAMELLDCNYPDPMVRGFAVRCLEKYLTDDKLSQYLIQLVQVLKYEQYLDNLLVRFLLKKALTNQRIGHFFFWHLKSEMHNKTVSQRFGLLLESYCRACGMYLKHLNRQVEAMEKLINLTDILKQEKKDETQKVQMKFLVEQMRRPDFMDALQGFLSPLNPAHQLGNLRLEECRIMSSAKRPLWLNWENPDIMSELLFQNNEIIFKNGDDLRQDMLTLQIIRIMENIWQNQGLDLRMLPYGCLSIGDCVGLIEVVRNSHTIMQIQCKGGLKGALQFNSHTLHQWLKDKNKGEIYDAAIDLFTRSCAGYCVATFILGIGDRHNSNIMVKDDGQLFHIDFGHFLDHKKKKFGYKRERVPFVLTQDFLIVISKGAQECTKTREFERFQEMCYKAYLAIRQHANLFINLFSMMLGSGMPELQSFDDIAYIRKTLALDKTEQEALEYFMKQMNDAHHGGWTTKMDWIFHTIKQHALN
T1 sequence (P27986 whole entry partner): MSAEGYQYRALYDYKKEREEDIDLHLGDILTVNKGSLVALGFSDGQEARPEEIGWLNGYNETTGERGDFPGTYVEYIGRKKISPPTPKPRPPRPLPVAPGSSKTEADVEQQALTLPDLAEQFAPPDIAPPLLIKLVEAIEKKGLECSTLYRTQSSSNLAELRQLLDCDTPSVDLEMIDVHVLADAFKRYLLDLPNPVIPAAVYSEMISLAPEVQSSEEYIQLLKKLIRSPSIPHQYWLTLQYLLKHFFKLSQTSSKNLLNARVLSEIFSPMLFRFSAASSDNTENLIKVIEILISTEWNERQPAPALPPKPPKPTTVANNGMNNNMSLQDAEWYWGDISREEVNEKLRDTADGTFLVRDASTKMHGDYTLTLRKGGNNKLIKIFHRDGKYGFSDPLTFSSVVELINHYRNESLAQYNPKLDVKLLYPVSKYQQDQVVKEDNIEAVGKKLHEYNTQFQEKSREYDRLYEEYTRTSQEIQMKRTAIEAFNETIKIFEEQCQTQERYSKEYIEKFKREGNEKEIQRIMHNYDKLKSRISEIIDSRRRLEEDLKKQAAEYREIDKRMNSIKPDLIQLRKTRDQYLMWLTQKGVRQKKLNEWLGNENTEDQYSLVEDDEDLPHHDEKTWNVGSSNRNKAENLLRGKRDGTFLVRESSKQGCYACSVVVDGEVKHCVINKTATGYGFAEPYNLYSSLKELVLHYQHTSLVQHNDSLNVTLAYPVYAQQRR
Protocol: Evaluation of the PI3Kα inhibitory activity of the compound of the present invention was carried out according to the method as described below.
For the PI3Kα enzyme assay, biotinylated product of a human PI3Kα protein produced using a Baculovirus expression system (Carna Biosciences, Inc.) was used. Further, for the detection of the enzyme activity, an ADP-Glo kinase assay (PROMEGA Corporation) was used.
10 μL of a reaction solution (3 nM PI3Kα, 40 mM Tris-HCl, 20 mM MgCl2, 0.1% BSA, pH 7.5) including the human PI3Kα protein and a test compound at a predetermined concentration was incubated at room temperature for 15 minutes. Thereafter, 5 μL of a mixed solution of L-α-Phosphatidylinositol 4,5-diphosphate (PIP2) (SIGMA-ALDLICH) which was a substrate and ATP(SIGMA-ALDLICH) was added thereto to a final concentration of 50 μM and 100 μM, respectively, and the reaction solution was further incubated at 25° C. for 60 minutes to carry out an enzyme reaction.
After the reaction, 15 μL of an ADP-Glo reagent (PROMEGA Corporation) was added and the resulting liquid was incubated at room temperature for 60 minutes, whereby the enzyme reaction was stopped. Thereafter, after further adding 30 μL of a Kinase Detection Reagent (PROMEGA Corporation) and standing the resulting solution at room temperature for 40 minutes, ADP produced by the enzyme reaction was quantified by luminescence intensity.
For the measurement of luminescence intensity, EnVision (PerkinElmer, Inc.) was used.
(§1) The inhibitory activity of the compounds was evaluated using an IC50 (50% inhibitory concentration). The IC50 was calculated using XLfit (IDBS).

[2] = biological target: T2, glutathione S-transferase (GST)-fusion human ERK2 protein (Homo sapiens, UniProt P28482); assay: ERK2 enzyme assay (LabChip mobility shift); format: biochemical; details: 2 nM ERK2, 4.25 μM FL-Peptide 8, 43 μM ATP
T2 construct: purchased Carna Biosciences, Inc; host or cells: E. coli expression system
T2 sequence (P28482 whole entry, the tested form may be a part): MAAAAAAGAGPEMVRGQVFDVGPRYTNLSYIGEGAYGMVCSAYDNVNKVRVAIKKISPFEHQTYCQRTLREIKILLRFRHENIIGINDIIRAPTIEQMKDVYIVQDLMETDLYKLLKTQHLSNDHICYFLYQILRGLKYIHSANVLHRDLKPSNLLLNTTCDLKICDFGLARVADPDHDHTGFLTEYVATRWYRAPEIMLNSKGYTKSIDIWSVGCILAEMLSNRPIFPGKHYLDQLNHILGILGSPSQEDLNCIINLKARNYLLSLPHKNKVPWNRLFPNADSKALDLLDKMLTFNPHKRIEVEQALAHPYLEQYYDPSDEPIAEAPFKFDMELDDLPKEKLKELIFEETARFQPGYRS
Protocol: Evaluation of the ERK2 inhibitory activity of the compound of the present invention was carried out according to the method as described below.
For the ERK2 enzyme assay, a glutathione S-transferase (GST)-fusion human ERK2 protein (Carna Biosciences, Inc.) produced using an E. coli expression system was used.
12 μL of the reaction solution (2 nM ERK2, 100 mM Hepes, 10 mM MgCl2, 1.5 mM DTT, 0.003% Brij35, pH 7.5) including the ERK2 protein and a test compound at a predetermined concentration was incubatedat room temperature for 15 minutes. Thereafter, 3 μL of a mixed solution of FL-Peptide 8 (5-FAM-IPTSPITTTYFFFKKK-COOH) (Caliper Lifescience) which was a substrate and ATP(SIGMA-ALDLICH) were added thereto to a final concentration of 4.25 μM and 43 μM, respectively. The reaction solution was further incubated at 25° C. for 120 minutes to carry out an enzyme reaction.
The enzyme reaction was stopped by adding 27 μL of a reaction-stopping solution (100 mM HEPES, 11.2 mM EDTA, 5.6% Brij35, pH 7.5) including a 0.5% Coating reagent 8 (PerkinElmer, Inc.) after the reaction. Thereafter, non-phosphorylated peptides and phosphorylated peptides were separated using LabChip Ez Reader (Caliper LifeScience, Inc.) to quantify the proportion of phosphorylated peptides.
as §1

[3] = IC50 class, read-out: PI3Kα Inhibitory Activity
[4] = IC50 class, read-out: ERK2 Inhibitory Activity

O=C(NCc1ccccc1)Nc1ccc2ncc(-c3cn[nH]c3)cc2n1 [Compound 0060]
IC50 [1, 3]: 100 to 1000 nM | IC50 [2, 4]: < 100 nM

CN1CCN(c2cnc3ccc(NC(=O)NC4CCCC4)nc3c2)CC1=O [Compound 0155]
IC50 [1, 3]: < 100 nM | IC50 [2, 4]: 100 to 1000 nM

COc1ccc(-c2cnc3ccc(NC(=O)NC4CCCC4)nc3c2)cc1OC [Compound 0002]
IC50 ([1]; read-out: PI3Kα, IC50): 84 nM | IC50 [1, 3]: < 100 nM | IC50 ([2]; read-out: ERK2, IC50): 42 nM | IC50 [2, 4]: < 100 nM

O=C(Nc1ccc2ncc(CN3CCOCC3)cc2n1)NC1CCCC1 [Compound 0132]
IC50 [1, 3]: 1000 to 10000 nM | IC50 [2, 4]: 1000 to 10000 nM

O=C(NCCO)Nc1ccc2ncc(-c3cn[nH]c3)cc2n1 [Compound 0097]
IC50 [1, 3]: 1000 to 10000 nM | IC50 [2, 4]: 100 to 1000 nM

O=C(Nc1ccc2ncc(-c3cnn(CCN4CCC4)c3)cc2n1)NC1CCCC1 [Compound 0024]
IC50 [1, 3]: < 100 nM | IC50 [2, 4]: 100 to 1000 nM

CC(C)(C)OC(=O)N1CCN(CCCn2cc(-c3cnc4ccc(NC(=O)NC5CCCC5)nc4c3)cn2)CC1 [Compound 0211]
IC50 [1, 3]: < 100 nM | IC50 [2, 4]: < 100 nM

O=C(Nc1ccc2ncc(Nc3cc[nH]n3)cc2n1)NC1CCCC1 [Compound 0126]
IC50 [1, 3]: < 100 nM | IC50 [2, 4]: 100 to 1000 nM

COCCN(C)c1cnc2ccc(NC(=O)NC3CCCC3)nc2c1 [Compound 0026]
IC50 [1, 3]: < 100 nM | IC50 [2, 4]: 100 to 1000 nM

O=C(Nc1ccc2ncc(-c3ccccc3)cc2n1)NC1CCCC1 [Compound 0006]
IC50 [1, 3]: 100 to 1000 nM | IC50 [2, 4]: 100 to 1000 nM

O=C(Nc1ccc2ncc(-c3cn[nH]c3)cc2n1)NC1CCCCCC1 [Compound 0058]
IC50 [1, 3]: < 100 nM | IC50 [2, 4]: < 100 nM

O=C(NCCCCc1ccccc1F)Nc1ccc2ncc(-c3cn[nH]c3)cc2n1 [Compound 0171]
IC50 [1, 3]: < 100 nM | IC50 [2, 4]: < 100 nM

O=C(Nc1ccc2ncc(-c3cn[nH]c3)cc2n1)NC1CCC(Oc2ccccc2)C1 (stereo not shown) [Compound 0092]
IC50 [1, 3]: < 100 nM | IC50 [2, 4]: < 100 nM

COC(=O)C#Cc1cnc2ccc(NC(=O)NC3CCCC3)nc2c1 [Compound 0127]
IC50 [1, 3]: 100 to 1000 nM | IC50 [2, 4]: 1000 to 10000 nM

O=C(NCC1CCCCO1)Nc1ccc2ncc(-c3cn[nH]c3)cc2n1 (stereo not shown) [Compound 0189]
IC50 [1, 3]: 100 to 1000 nM | IC50 [2, 4]: < 100 nM

O=C(Nc1ccc2ncc(-c3cn[nH]c3)cc2n1)NC1C[C@H]2CC[C@@H]1C2 (stereo partly shown) [Compound 0068]
IC50 ([1]; read-out: PI3Kα, IC50): 30 nM | IC50 [1, 3]: < 100 nM | IC50 ([2]; read-out: ERK2, IC50): 4 nM | IC50 [2, 4]: < 100 nM

CC(C)NC(=O)Nc1ccc2ncc(-c3cn[nH]c3)cc2n1 [Compound 0053]
IC50 [1, 3]: < 100 nM | IC50 [2, 4]: < 100 nM

O=C(NCCCCC1CCCCC1)Nc1ccc2ncc(-c3cnn(CCCN4CCOCC4)c3)cc2n1 [Compound 0178]
IC50 [1, 3]: 100 to 1000 nM | IC50 [2, 4]: 100 to 1000 nM

O=C(Nc1ccc2ncc(-c3cccc(O)c3)cc2n1)NC1CCCC1 [Compound 0033]
IC50 [1, 3]: 100 to 1000 nM | IC50 [2, 4]: < 100 nM

CS(=O)(=O)N1CCN(c2cnc3ccc(NC(=O)NC4CCCC4)nc3c2)CC1 [Compound 0151]
IC50 [1, 3]: < 100 nM | IC50 [2, 4]: < 100 nM

NC(=O)c1cnc2ccc(NC(=O)NC3CCCC3)nc2c1 [Compound 0130]
IC50 [1, 3]: 100 to 1000 nM | IC50 [2, 4]: 100 to 1000 nM

O=C(Nc1ccc2ncc(-c3cnn(CCCN4CCOCC4)c3)cc2n1)NC1CCCC1 [Compound 0044]
IC50 ([1]; read-out: PI3Kα, IC50): 4 nM | IC50 [1, 3]: < 100 nM | IC50 ([2]; read-out: ERK2, IC50): 49 nM | IC50 [2, 4]: < 100 nM

O=C(Nc1ccc2ncc(-c3cn[nH]c3)cc2n1)NC1CC1 [Compound 0067]
IC50 [1, 3]: 100 to 1000 nM | IC50 [2, 4]: < 100 nM

O=C(NCC1C[C@@H]2CC[C@H]1C2)Nc1ccc2ncc(-c3cnn(CCN4CCNCC4)c3)cc2n1 (stereo partly shown) [Compound 0252]
IC50 [1, 3]: 100 to 1000 nM | IC50 [2, 4]: 100 to 1000 nM

C[C@@H](C[C@H](C)Oc1ccccc1)NC(=O)Nc1ccc2ncc(-c3cn[nH]c3)cc2n1 [Compound 0163]
IC50 [1, 3]: 100 to 1000 nM | IC50 [2, 4]: 100 to 1000 nM

O=C(Nc1ccc2ncc(N3CCS(=O)(=O)CC3)cc2n1)NC1CCCC1 [Compound 0133]
IC50 [1, 3]: < 100 nM | IC50 [2, 4]: < 100 nM

C[C@H](NC(=O)Nc1ccc2ncc(-c3cn[nH]c3)cc2n1)C1CCCC1 [Compound 0199]
IC50 [1, 3]: 100 to 1000 nM | IC50 [2, 4]: < 100 nM

O=C(NCC1CCOC1)Nc1ccc2ncc(-c3cn[nH]c3)cc2n1 (stereo not shown) [Compound 0197]
IC50 [1, 3]: 100 to 1000 nM | IC50 [2, 4]: < 100 nM

O=C(NCC1CC1)Nc1ccc2ncc(-c3cn[nH]c3)cc2n1 [Compound 0186]
IC50 [1, 3]: 100 to 1000 nM | IC50 [2, 4]: < 100 nM

O=C(Nc1ccc2ncc(C(=O)N3CCOCC3)cc2n1)NC1CCCC1 [Compound 0141]
IC50 [1, 3]: > 10000 nM | IC50 [2, 4]: > 10000 nM

O=C(NCCc1ccccc1)Nc1ccc2ncc(-c3cn[nH]c3)cc2n1 [Compound 0089]
IC50 [1, 3]: 100 to 1000 nM | IC50 [2, 4]: < 100 nM

O=C(Nc1ccc2ncc(-c3cnn(CCN4CC5(COC5)C4)c3)cc2n1)NC1CCCC1 [Compound 0117]
IC50 [1, 3]: < 100 nM | IC50 [2, 4]: 100 to 1000 nM

CN(C)CCCn1cc(-c2cnc3ccc(NC(=S)NC4CCCC4)nc3c2)cn1 [Compound 0221]
IC50 [1, 3]: < 100 nM | IC50 [2, 4]: < 100 nM

O=C(Nc1ccc2ncc(-c3cn[nH]c3)cc2n1)N[C@H]1CCNC1 [Compound 0074]
IC50 [1, 3]: 1000 to 10000 nM | IC50 [2, 4]: < 100 nM

O=C(Nc1ccc2ncc(-c3cn[nH]c3)cc2n1)NC1CCOC1 (stereo not shown) [Compound 0075]
IC50 [1, 3]: 100 to 1000 nM | IC50 [2, 4]: < 100 nM

CN(C)CCNC(=O)C1CCN(c2cnc3ccc(NC(=O)NC4CCCC4)nc3c2)CC1 [Compound 0150]
IC50 [1, 3]: 100 to 1000 nM | IC50 [2, 4]: 1000 to 10000 nM

COc1cc(Nc2cnc3ccc(NC(=O)NC4CCCC4)nc3c2)cc(OC)c1OC [Compound 0009]
IC50 ([1]; read-out: PI3Kα, IC50): < 3 nM | IC50 [1, 3]: < 100 nM | IC50 ([2]; read-out: ERK2, IC50): 1220 nM

CN(C)Cc1nn(C)cc1-c1cnc2ccc(NC(=O)NC3CCCC3)nc2c1 [Compound 0217]
IC50 [1, 3]: < 100 nM | IC50 [2, 4]: 100 to 1000 nM

CC(C)C(C)NC(=O)Nc1ccc2ncc(-c3cn[nH]c3)cc2n1 (stereo not shown) [Compound 0072]
IC50 [1, 3]: < 100 nM | IC50 [2, 4]: < 100 nM

COc1cc(-c2cnc3ccc(NC(=O)NC4CCCC4)nc3c2)ccn1 [Compound 0022]
IC50 [1, 3]: < 100 nM | IC50 [2, 4]: < 100 nM

O=C(NCCCCc1ccc(F)cc1)Nc1ccc2ncc(-c3cn[nH]c3)cc2n1 [Compound 0172]
IC50 [1, 3]: 100 to 1000 nM | IC50 [2, 4]: < 100 nM

O=C(Nc1ccc2ncc(-c3cnc4[nH]ccc4c3)cc2n1)NC1CCCC1 [Compound 0123]
IC50 [1, 3]: 100 to 1000 nM | IC50 [2, 4]: 1000 to 10000 nM
